Reference: the METLIN SMRT retention time set (Domingo-Almenara et al. 2019)

Test: gradient 5% acetonitrile 3 min, to 50% in 2 min, to 85% in 15 min, held 3 min, 100 µL/min
Details: column: Zorbax Extend-C18 2.1 x 50 mm; eluents: water / acetonitrile, 0.1% formic acid
How it was run: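 A Zorbax Extend-C18 column (2.1 × 50 mm, 1.8 μm) run at 100 μL/min with water and acetonitrile, both containing 0.1% formic acid, separated mixtures of ~100 pure standards. The HPLC was coupled to a quadrupole time-of-flight mass spectrometer operated in positive and negative ionization mode, with dead and dwell volumes of 40 μL and 900 μL. Each retention time was taken from a computationally picked adduct peak that was then manually inspected.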

| Compound | RP-LC retention time [s] |
| --- | --- |
| Cn1c(N2CCCC(C(=O)NCC3CCN(Cc4ccccc4F)CC3)C2)cc(=O)n(C)c1=O (configuration not stated) | 579 |
| Cn1c(=O)sc2cc(S(=O)(=O)N3CCC(C(=O)NCc4ccc(F)cc4)CC3)ccc21 | 818 |
| CCN1C(=O)CCc2cc(NS(=O)(=O)c3cccc4cccnc34)ccc21 | 758 |
| CCc1ccc(C2=C(C)C(N3CCCN(C(=O)C(C)(C)CC)CC3)=NS2(=O)=O)cc1 | 935 |
| COCCN1CCC(N2CCCN(C(=O)NCCc3ccccc3)CC2)C1=O (configuration not stated) | 526 |
| Cc1ccc(C(=O)N2CCC3(CC2)N=C(c2ccc(Br)cc2)NO3)cc1 | 875 |
| Cc1ccc(C)c(NC(=O)Cn2c(N)nc(C)cc2=O)c1 | 596 |
| CC1CCN(C(=O)Cc2nnc3cc(-c4nc(C5CC5)no4)ccn23)CC1 | 759 |
| Cn1cc2c3c(cccc31)CN(C(=O)Cc1ccccc1F)CC2 | 954 |
| CCOC(=O)c1c(C)[nH]c(C)c1S(=O)(=O)N1CCC(C(=O)Nc2ccc(C)c(N(C)C)c2)CC1 | 616 |
| COCCOCc1nc(C2CCN(S(=O)(=O)c3ccc(OC)cc3)C2)no1 (configuration not stated) | 791 |
| CC(C)CC(=O)Nc1ccc(N2CCN(CC(=O)N3CCCC3)CC2)cc1C(=O)O | 614 |
| COc1ccc2[nH]cc(CCNC(=O)CCCn3c4ccccc4c4cnn(C)c(=O)c43)c2c1 | 795 |
| CC(=O)N1CCCN(C2=NS(=O)(=O)C(c3ccc(Cl)cc3)=C2C)CC1 | 718 |
| CCc1ccc(-c2ccc(=O)n(Cc3nc(-c4cccs4)no3)n2)cc1 | 1060 |
| O=C(Nc1nccs1)C1CCN(C(=O)c2cnn(-c3ccccc3)n2)CC1 | 743 |
| CSc1cccc(NC(=O)c2cnc(-c3ccc(F)cc3)nc2-c2ccncc2)c1 | 973 |
| Cc1c(N2CCCC2)cc2c(c1NC(=O)c1ccccc1Cl)C(C)(C)CC2(C)C | 874 |
| CCc1noc(-c2cnc3nc(C)ccc3c2Nc2ccc(OC)cc2)n1 | 764 |
| COC(=O)c1ccc2c(=O)n(-c3cccc(Cl)c3)c(N3CCCC3)nc2c1 | 1040 |
| Cc1cc(NS(=O)(=O)c2ccc3c(c2)CCCC(=O)N3)ccc1Br | 774 |
| COc1ccc(Cl)cc1NC(=O)Cc1csc2nc(-c3ccc(C)c(C)c3)cn12 | 985 |

| Compound | RP-LC retention time [s] |
| --- | --- |
| Fc1ccc(-c2noc(Cc3nnc(-c4cccc(Cl)c4)o3)n2)cc1 | 1070 |
| COCCN1CCC2(CC1)CN(Cc1cc(OC)cc(OC)c1)Cc1ccccc1O2 | 560 |
| O=C(Nc1ccc(N2CCOCC2)cc1)C1CCCN(c2ccnc(-c3cccc(F)c3)n2)C1 (configuration not stated) | 649 |
| Cc1ccc(C2CC(=O)c3cnc(Nc4nc(C)c5ccc(C)cc5n4)nc3C2)cc1 (configuration not stated) | 808 |
| CC(C)c1ccc(-c2c(N3CCN(c4ccccn4)CC3)c(=O)c2=O)cc1 | 756 |
| CCc1ccc(NS(=O)(=O)c2c(C)sc(C)c2-c2n[nH]c(C)c2C)cc1 | 1200 |
| O=C(CS(=O)(=O)Cc1ccccc1)Nc1nc(-c2ccccn2)cs1 | 614 |
| CC1Oc2ccc(NC(=O)C3CCCC3)cc2CN(Cc2ccccc2F)C1=O (configuration not stated) | 864 |
| Cc1ccc(-c2nnc(C)c(NCc3ccccn3)n2)cc1 | 605 |
| Cn1c(=O)c(NCCCN2CCCc3ccccc32)nc2ccncc21 | 665 |
| Cn1ccc2c(cc(C(=O)N3CCN(c4ccccc4F)CC3)n2C)c1=O | 723 |
| CCc1nn2c(CNS(=O)(=O)Cc3ccccc3F)c(-c3ccccc3)nc2s1 | 948 |
| Cc1nc(-c2nnc(NC(=O)C3CCN(S(C)(=O)=O)CC3)o2)cs1 | 572 |
| CC1CCCCN1CCNC(=O)c1nc2nc(-c3ccco3)cc(C(F)(F)F)n2n1 (configuration not stated) | 628 |
| c1ccc(-n2nnc(-c3noc(-c4ccncc4)n3)c2-c2ccncc2)cc1 | 732 |
| COc1cc(-c2oc3cc(O)cc(O)c3c(=O)c2OC[C@@H]2OC(O[C@@H]3O[C@@H](C)[C@H](O)[C@@H](O)[C@H]3O)[C@@H](O)[C@H](O)[C@@H]2O)ccc1O (some centres not stated) | 638 |
| Cn1cnc(S(=O)(=O)N2CCC(C(=O)N3CCCCCC3)CC2)c1 | 638 |
| COC(=O)C1C(=O)C2=C(CC1C)NC(C)=C(C(=O)OC(C)C)C2c1cccc(F)c1 (configuration not stated) | 951 |
| COc1ccc(-c2nc(C3CC(=O)N(c4ccc(C)cc4)C3)no2)c(C)c1 (configuration not stated) | 1090 |
| CN(Cc1ccccc1)C(=O)c1cc2n(n1)CC(C)(C(=O)NC1CCCCCC1)N(C)C2=O (configuration not stated) | 866 |
| CN(CC(=O)N1CCN(C2CCCC2)CC1)S(=O)(=O)c1ccc2c(c1)CCCC(=O)N2 | 588 |
| Cc1ccc(S(=O)(=O)Nc2ccc(Nc3ccc(-n4cccn4)nn3)cc2)c(C)c1 | 829 |

| Compound | RP-LC retention time [s] |
| --- | --- |
| Cc1ccccc1CNC(=O)c1ccc2c(c1)CC(=O)N2C | 714 |
| O=C(CN1CN(c2ccccc2)c2ncccc2S1(=O)=O)Nc1cccc(Cl)c1 | 983 |
| COc1cccc(Cn2nc3ccc(S(=O)(=O)N4CCCCCC4)cn3c2=O)c1 | 946 |
| O=C(Nc1ccccc1)C1(CCO)CC12CCOCC2 (configuration not stated) | 639 |
| COc1ccc(NC(=O)c2cn3c(n2)CCCC3)cc1OC | 570 |
| CC1=C(c2ccc(C)cc2)S(=O)(=O)N=C1N1CCCN(C(=O)c2cccc(C#N)c2)CC1 | 885 |
| CCOc1ccc(NC(=O)N2CCC3(CC2)NC(=O)c2ccc(F)cc2N3C)cc1 | 777 |
| CCNc1nc(C)cc(N2CCN(S(=O)(=O)c3cccc(Cl)c3)CC2)n1 | 725 |
| Cc1ccc(CNC(=O)CCNc2c(-c3ccccc3C)nc3cnccn23)o1 | 631 |
| COc1ccccc1-c1nc(Cn2nnc(-c3nc(-c4cccc(Cl)c4)no3)c2C)c(C)o1 | 1240 |
| Cc1sc2ncnc(N3CCCCC3)c2c1C(=O)Nc1cc(F)c(F)c(F)c1 | 1230 |
| CC(C)CCNC(=O)Cn1c(=O)c2cccn2c2ccc(F)cc21 | 856 |
| Cc1ccc(-c2cc(C(=O)N3CCC(NC(=O)c4cc(C5CC5)[nH]n4)CC3)[nH]n2)cc1C | 698 |
| Cn1c(=O)cnc2ccc(N3CCOCC3)nc21 | 662 |
| O=C(NC1CCCC1)C1c2cccn2CC(=O)N1c1cccc(Cl)c1 (configuration not stated) | 870 |
| CC1(CNC(=O)NCCc2ccccc2)CCOCC1 | 696 |
| Cc1ccccc1Cn1cc(-c2ccncc2)cc1C(=O)Nc1ccc2c(c1)OCO2 | 749 |
| CCN(CC)S(=O)(=O)c1cc(-c2nnc(-c3ccccc3Cl)o2)ccc1C | 1130 |
| O=C(C1=NN(Cc2ccccc2)c2ccc(Cl)cc2S1(=O)=O)N1CCOCC1 | 824 |
| O=C(Cn1ccn2nc(-c3ccccc3)c(CO)c2c1=O)Nc1ccc2c(c1)OCCO2 | 759 |
| CCC(C(=O)NCCN1CCCC1)n1c2ccccc2c2cnn(C)c(=O)c21 (configuration not stated) | 632 |
| Fc1ccc(Nc2nc(NCC3CCCO3)nc3[nH]ncc23)cc1 (configuration not stated) | 578 |

| Compound | RP-LC retention time [s] |
| --- | --- |
| O=C1CC(NC(=O)c2cnn(-c3ccccc3)n2)CN1 (configuration not stated) | 603 |
| Cc1noc([C@@H]2CN(S(=O)(=O)c3cccs3)C[C@H]2C(N)=O)n1 | 658 |
| CC(C)(C)c1ccc(C(=O)Nc2nc(-c3ccc(F)cc3)cs2)cc1 | 1310 |
| O=C(NCc1cccs1)C1CCN(c2nnc(-c3ccccc3)o2)CC1 | 769 |
| CC(C)n1cnc2c(NCCc3ccc(O)cc3)nc(-c3csc4ccccc34)nc21 | 1160 |
| CCc1cccc(C)c1NC(=O)Cn1cnc2nc(N3CCCC(C(=O)NC)C3)sc2c1=O (configuration not stated) | 672 |
| CN(C)C(=O)c1ccc2c(c1)nc(CN(C)C(=O)Nc1ccccc1Br)n2C | 618 |
| COc1ccccc1CNc1nc2ccccc2nc1NS(=O)(=O)c1cccs1 | 1050 |
| Cc1cnc(CC2CCN(C(=O)Nc3ccc4c(c3)OCCO4)C2)n1C1CC1 (configuration not stated) | 612 |
| COc1ccc(-n2ccc(=O)c(-c3nc(-c4cccc(OC)c4OC)no3)n2)cc1 | 824 |
| O=C(c1n[nH]c2ccccc12)N1CCCn2nc(-c3ccncc3)cc2C1 | 603 |
| CCOC(=O)c1cccc(Nc2c(-c3ccc(SC)cc3)nc3cnccn23)c1 | 950 |
| O=C(c1ccc(Cl)cc1)N1CCCCC1CCN1CCOCC1 (configuration not stated) | 637 |
| Cc1noc(C)c1S(=O)(=O)N1CCC(c2noc(-c3ccccc3)n2)C1 (configuration not stated) | 1010 |
| Cc1ccc(-c2coc(-c3ccc(NC(=O)NCc4cccc(F)c4)cc3)n2)c(C)c1 | 1200 |
| CCc1ccccc1S(=O)(=O)N1CC=C(c2cn(C)c3ncccc23)CC1 | 1090 |
| CCC(C)NC(=O)N1CC(n2cc(C(=O)NCC3CC3)nn2)C1 (configuration not stated) | 662 |
| Cc1ccc(NC(=O)N2C[C@@H](F)C[C@H]2C(=O)N2CCc3ccccc3C2)cc1 | 807 |
| CCOc1ccc(S(=O)(=O)N2CCCC(C(=O)NC(C)C)C2)cc1 (configuration not stated) | 825 |
| Cc1ccccc1C(=O)NCCc1nc2cccnc2n1CC(C)C | 717 |
| COC(c1ccccc1)(c1ccccc1)[C@H](Oc1nc(C)cc(C)n1)C(=O)O | 913 |
